Measurements published in ChEMBL document CHEMBL1125685, “Benzyloxazolidine-2,4-diones as potent hypoglycemic agents” (1991).

Assays:
Format in all cases: functional
Mus musculus [1] = test: Percentage glucose normalization relative to the ciglitazone effect at 50 mg/kg, which lower blood glucose levels to that of the lean littermates at the dose 0.5 mg/kg (in mice)
Mus musculus [2] = test: Percentage glucose normalization relative to the ciglitazone effect at 50 mg/kg, which lower blood glucose levels to that of the lean littermates at the dose 1 mg/kg (in mice)
Mus musculus [3] = test: Percentage glucose normalization relative to the ciglitazone effect at 50 mg/kg, which lower blood glucose levels to that of the lean littermates at the dose 5 mg/kg (in mice)
Mus musculus [4] = test: Percentage glucose normalization relative to the ciglitazone effect at 50 mg/kg, which lower blood glucose levels to that of the lean littermates at the dose 0.2 mg/kg (in mice)
Mus musculus [5] = test: Percentage glucose normalization relative to the ciglitazone effect at 50 mg/kg, which lower blood glucose levels to that of the lean littermates at the dose 0.1 mg/kg (in mice)
Mus musculus [6] = test: Percentage glucose normalization relative to the ciglitazone effect at 50 mg/kg, which lower blood glucose levels to that of the lean littermates at the dose 10 mg/kg (in mice)
Mus musculus [7] = test: Percentage glucose normalization relative to the ciglitazone effect at 50 mg/kg, which lower blood glucose levels to that of the lean littermates at the dose 0.05 mg/kg (in mice)
Mus musculus [8] = test: Percentage glucose normalization relative to the ciglitazone effect at 50 mg/kg, which lower blood glucose levels to that of the lean littermates at the dose 0.025 mg/kg (in mice)
Mus musculus [9] = test: Percentage glucose normalization relative to the ciglitazone effect at 50 mg/kg, which lower blood glucose levels to that of the lean littermates at the dose 25 mg/kg (in mice)

SMILES	Glucose normalisation (Mus musculus [1]) [%]	Glucose normalisation (Mus musculus [2]) [%]	Glucose normalisation (Mus musculus [4]) [%]	other results
Cc1sc(-c2ccccc2)nc1Cc1cc2cc(CC3OC(=O)NC3=O)ccc2o1 (stereo unspecified)	0			
Cc1oc(-c2ccccc2)nc1CCC(=O)c1ccc(CC2OC(=O)NC2=O)cc1 (stereo unspecified)		13		Glucose normalisation (Mus musculus [3]): 75%
Cc1oc(-c2cc(C(F)(F)F)cc(C(F)(F)F)c2)nc1CCOc1ccc(CC2OC(=O)NC2=O)cc1 (stereo unspecified)	95		14	
Cc1oc(-c2ccco2)nc1CCOc1ccc(CC2OC(=O)NC2=O)cc1 (stereo unspecified)		14		Glucose normalisation (Mus musculus [3]): 24%
Cc1oc(C2CCCCC2)nc1CCOc1ccc(CC2OC(=O)NC2=O)cc1 (stereo unspecified)		61		
Cc1cccc(-c2nc(Cc3cc4cc(CC5OC(=O)NC5=O)ccc4o3)c(C)o2)c1 (stereo unspecified)	100			Glucose normalisation (Mus musculus [5]): 90%
Cc1nc(-c2ccc3ccccc3c2)oc1CCOc1ccc(CC2OC(=O)NC2=O)cc1 (stereo unspecified)		0		Glucose normalisation (Mus musculus [3]): 10%
Cc1oc(-c2ccccc2)nc1CCOc1ccc(CC2OC(=O)NC2=O)cc1 (stereo unspecified)	28	100		
Cc1oc(-c2ccccc2)nc1CCOc1ccc(C2OC(=O)NC2=O)cc1 (stereo unspecified)		0		
Cc1oc(-c2ccc3ccccc3c2)nc1CCOc1ccc(CC2OC(=O)NC2=O)cc1 (stereo unspecified)	100	98	46	
Cc1oc(C2CCCCC2)nc1Cc1cc2cc(CC3OC(=O)NC3=O)ccc2o1 (stereo unspecified)			91	Glucose normalisation (Mus musculus [5]): 64%
Cc1ccc(-c2nc(Cc3cc4cc(CC5OC(=O)NC5=O)ccc4o3)c(C)o2)cc1 (stereo unspecified)			100	Glucose normalisation (Mus musculus [5]): 40%
O=C1NC(=O)C(Cc2ccc(OCCc3oc(-c4ccccc4)nc3Cc3ccccc3)cc2)O1 (stereo unspecified)				Glucose normalisation (Mus musculus [6]): 40%
Cc1oc(-c2ccccc2)nc1Cc1cc2cc(CC3OC(=O)NC3=O)ccc2o1 (stereo unspecified)			100	Glucose normalisation (Mus musculus [7]): 77%; Glucose normalisation (Mus musculus [5]): 92%; Glucose normalisation (Mus musculus [3]): 100%; Glucose normalisation (Mus musculus [8]): 65%
Cc1sc(-c2ccc3ccccc3c2)nc1CCOc1ccc(CC2OC(=O)NC2=O)cc1 (stereo unspecified)	0			
Cc1oc(-c2ccc3ccccc3c2)nc1Cc1cc2cc(CC3OC(=O)NC3=O)ccc2o1 (stereo unspecified)		75	70	Glucose normalisation (Mus musculus [5]): 76%
Cc1oc(-c2ccccc2)nc1COc1ccc(CC2OC(=O)NC2=O)cc1 (stereo unspecified)				Glucose normalisation (Mus musculus [3]): 60%
O=C1NC(=O)C(Cc2ccc(Oc3ccc4oc(-c5ccccc5)nc4c3)cc2)O1 (stereo unspecified)				Glucose normalisation (Mus musculus [9]): 0%
COc1ccc(-c2nc(CCOc3ccc(CC4OC(=O)NC4=O)cc3)c(C)o2)cc1 (stereo unspecified)	53	80		
